Patent US20260258035A1, “FIVE-MEMBERED AND SIX-MEMBERED NITROGEN-CONTAINING COMPOUND, AND INTERMEDIATE, PREPARATION METHOD AND USE THEREOF” (HANGZHOU SYNRX THERAPEUTICS BIOMEDICAL TECHNOLOGY CO., LTD., priority 2022, published 2026)

Experiments:
[1] = target: PARG (Homo sapiens, UniProt Q86W56); assay: Biochemical assay (PARG, TFMU-ADPr substrate); settings: PARG, TFMU-ADPr substrate
[2] = tested on: HCC1806; assay: Cell viability assay (CellTiter-Glo); type: cell-based, Human; settings: Homo sapiens, HCC1806, 168 h, HCC1806, 7 days, CellTiter-Glo; read-out: IC50 (nM) in cell viability assay

Sequence of PARG (Q86W56 whole entry): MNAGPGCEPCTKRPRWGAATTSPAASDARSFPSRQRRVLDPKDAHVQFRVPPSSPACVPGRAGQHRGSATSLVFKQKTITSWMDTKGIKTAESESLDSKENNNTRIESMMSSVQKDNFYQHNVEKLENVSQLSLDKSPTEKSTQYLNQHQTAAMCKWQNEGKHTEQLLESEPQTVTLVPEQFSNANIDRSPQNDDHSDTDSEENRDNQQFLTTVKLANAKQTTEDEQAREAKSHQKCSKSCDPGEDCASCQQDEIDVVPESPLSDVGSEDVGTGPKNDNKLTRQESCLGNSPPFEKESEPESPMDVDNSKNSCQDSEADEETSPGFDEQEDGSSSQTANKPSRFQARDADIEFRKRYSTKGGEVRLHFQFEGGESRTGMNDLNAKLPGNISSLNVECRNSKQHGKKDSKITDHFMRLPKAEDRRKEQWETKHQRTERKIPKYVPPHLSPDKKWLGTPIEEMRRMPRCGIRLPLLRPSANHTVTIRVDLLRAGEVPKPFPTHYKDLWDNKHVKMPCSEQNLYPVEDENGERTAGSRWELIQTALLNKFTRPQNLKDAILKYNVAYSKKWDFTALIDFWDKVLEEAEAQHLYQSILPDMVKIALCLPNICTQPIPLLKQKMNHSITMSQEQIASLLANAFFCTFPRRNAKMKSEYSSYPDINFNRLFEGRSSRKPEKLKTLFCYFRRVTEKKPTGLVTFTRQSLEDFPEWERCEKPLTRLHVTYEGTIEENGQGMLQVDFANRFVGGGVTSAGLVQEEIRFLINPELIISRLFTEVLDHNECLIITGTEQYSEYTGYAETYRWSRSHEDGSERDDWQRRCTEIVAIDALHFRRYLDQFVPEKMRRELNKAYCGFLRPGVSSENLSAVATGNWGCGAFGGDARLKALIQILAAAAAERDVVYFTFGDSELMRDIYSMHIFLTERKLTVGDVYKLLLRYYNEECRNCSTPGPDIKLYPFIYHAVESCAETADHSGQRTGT

Structure (SMILES) | IC50 [1] | IC50 [2]
N#CC1(NS(=O)(=O)c2cc(N3CCN(C(=O)C(O)C(F)(F)F)CC3)c3cnc(-c4nnc(C(F)(F)F)s4)n3c2)CC1 (stereo not drawn) [Example 231, N-(1-cyanocyclopropyl)-8-(4-(3,3,3-trifluoro-2-hydroxypropanoyl)piperazin-1-yl)-3-(5-(trifluoromethyl)-1,3,4-thiadiazol-2-yl)imidazo[1,5-a]pyridine-6-sulfonamide] | 8.32 nM | 500 nM
N#CC1(NS(=O)(=O)c2ccc3c(C4=CC5(CC4)CN(C(=O)C4CC4(F)F)C5)nc(-c4nnc(C(F)(F)F)s4)n3c2)CC1 (stereo not drawn) [Example 232, N-(1-cyanocyclopropyl)-1-(2-(2,2-difluorocyclopropane-1-carbonyl)-2-azaspiro[3.4]oct-5-en-6-yl)-3-(5-(trifluoromethyl)-1,3,4-thiadiazol-2-yl)imidazo[1,5-a]pyridine-6-sulfonamide] | 31.6 nM | 953 nM
N#CC1(NS(=O)(=O)c2cc(N3CCNCC3)c3cnc(-c4nnc(C(F)(F)F)s4)n3c2)CC1 [Example 233, N-(1-cyanocyclopropyl)-8-(piperazin-1-yl)-3-(5-(trifluoromethyl)-1,3,4-thiadiazol-2-yl)imidazo[1,5-a]pyridine-6-sulfonamide] | 45.7 nM | 3000 nM
Cn1ccnc1N1CCN(c2cc(S(=O)(=O)NC3(C#N)CC3)cn3c(-c4nnc(C(F)(F)F)s4)ncc23)CC1 [Example 238, N-(1-cyanocyclopropyl)-8-(4-(1-methyl-1H-imidazol-2-yl)piperazin-1-yl)-3-(5-(trifluoromethyl)-1,3,4-thiadiazol-2-yl)imidazo[1,5-a]pyridine-6-sulfonamide] | 38 nM | 15000 nM
N#CC1(NS(=O)(=O)c2cc(N3CC[C@H](O)C3)c3cnc(-c4nnc(C(F)(F)F)s4)n3c2)CC1 [Example 239, (S)-N-(1-cyanocyclopropyl)-8-(3-hydroxypyrrolidin-1-yl)-3-(5-(trifluoromethyl)-1,3,4-thiadiazol-2-yl)imidazo[1,5-a]pyridine-6-sulfonamide] | 380 nM | 9790 nM
N#CC1(NS(=O)(=O)c2cc(N3CCN(C(=O)C4CC4(F)F)CC3)c3cnc(-c4nnc(C(F)(F)F)s4)n3c2)CC1 (stereo not drawn) [Example 240, N-(1-cyanocyclopropyl)-8-(4-(2,2-difluorocyclopropane-1-carbonyl)piperazin-1-yl)-3-(5-(trifluoromethyl)-1,3,4-thiadiazol-2-yl)imidazo[1,5-a]pyridine-6-sulfonamide] | 13.2 nM | 2440 nM
CC1(O)CC2(CCN(c3cc(S(=O)(=O)NC4(C#N)CC4)cn4c(-c5nnc(C(F)(F)F)s5)ncc34)CC2)C1 [Example 242, N-(1-cyanocyclopropyl)-8-(2-hydroxy-2-methyl-7-azaspiro[3.5]nonan-7-yl)-3-(5-(trifluoromethyl)-1,3,4-thiadiazol-2-yl)imidazo[1,5-a]pyridine-6-sulfonamide] | 52.5 nM | 2980 nM
N#CC1(NS(=O)(=O)c2cc(N3CCN(c4ccccn4)CC3)c3cnc(-c4nnc(C(F)(F)F)s4)n3c2)CC1 [Example 244, N-(1-cyanocyclopropyl)-8-(4-(pyridin-2-yl)piperazin-1-yl)-3-(5-(trifluoromethyl)-1,3,4-thiadiazol-2-yl)imidazo[1,5-a]pyridine-6-sulfonamide] | 75.9 nM | 9000 nM
N#CC1(NS(=O)(=O)c2cc(N3CCNC(=O)C3)c3cnc(-c4nnc(C(F)(F)F)s4)n3c2)CC1 [Example 248, N-(1-cyanocyclopropyl)-8-(3-oxopiperazin-1-yl)-3-(5-(trifluoromethyl)-1,3,4-thiadiazol-2-yl)imidazo[1,5-a]pyridine-6-sulfonamide] | 692 nM | 6440 nM
CN(C)CCC(=O)N1CCN(c2cc(S(=O)(=O)NC3(C#N)CC3)cn3c(-c4nnc(C(F)(F)F)s4)ncc23)CC1 [Example 249, N-(1-cyanocyclopropyl)-8-(4-(3-(dimethylamino)propanoyl)piperazin-1-yl)-3-(5-(trifluoromethyl)-1,3,4-thiadiazol-2-yl)imidazo[1,5-a]pyridine-6-sulfonamide] | 115 nM | 7320 nM
CN1CC(C(=O)N2CCN(c3cc(S(=O)(=O)NC4(C#N)CC4)cn4c(-c5nnc(C(F)(F)F)s5)ncc34)CC2)C1 [Example 252, N-(1-cyanocyclopropyl)-8-(4-(1-methylazetidine-3-carbonyl)piperazin-1-yl)-3-(5-(trifluoromethyl)-1,3,4-thiadiazol-2-yl)imidazo[1,5-a]pyridine-6-sulfonamide] | 16.6 nM | 2000 nM
CCC(=O)C1CCN(c2cc(S(=O)(=O)NC3(C#N)CC3)cn3c(-c4nnc(C(F)(F)F)s4)ncc23)CC1 [Example 258, N-(1-cyanocyclopropyl)-8-(4-propionylpiperidin-1-yl)-3-(5-(trifluoromethyl)-1,3,4-thiadiazol-2-yl)imidazo[1,5-a]pyridine-6-sulfonamide] | 550 nM | 2830 nM

The next lines start with the values.

IC50 [1] | IC50 [2] | Structure (SMILES)
13.2 nM | 4000 nM | CC(C)OC(=O)N1CCN(c2cc(S(=O)(=O)NC3(C#N)CC3)cn3c(-c4nnc(C(F)(F)F)s4)ncc23)CC1 [Example 234, isopropyl 4-(6-(N-(1-cyanocyclopropyl)sulfamoyl)-3-(5-(trifluoromethyl)-1,3,4-thiadiazol-2-yl)imidazo[1,5-a]pyridin-8-yl)piperazine-1-carboxylate]
4.37 nM | 4940 nM | N#CC1(NS(=O)(=O)c2cc(N3CCN(C(=O)c4ccn[nH]4)CC3)c3cnc(-c4nnc(C(F)(F)F)s4)n3c2)CC1 [Example 235, 8-(4-(1H-pyrazole-5-carbonyl)piperazin-1-yl)-N-(1-cyanocyclopropyl)-3-(5-(trifluoromethyl)-1,3,4-thiadiazol-2-yl)imidazo[1,5-a]pyridine-6-sulfonamide]
2.88 nM | 4390 nM | N#CC1(NS(=O)(=O)c2cc(N3CCN(C(=O)C4(O)CC4)CC3)c3cnc(-c4nnc(C(F)(F)F)s4)n3c2)CC1 [Example 237, N-(1-cyanocyclopropyl)-8-(4-(1-hydroxycyclopropane-1-carbonyl)piperazin-1-yl)-3-(5-(trifluoromethyl)-1,3,4-thiadiazol-2-yl)imidazo[1,5-a]pyridine-6-sulfonamide]
24 nM | 4180 nM | N#CC1(NS(=O)(=O)c2cc(N3CCN(C(=O)C(F)F)CC3)c3cnc(-c4nnc(C(F)(F)F)s4)n3c2)CC1 [Example 241, N-(1-cyanocyclopropyl)-8-(4-(2,2-difluoroacetyl)piperazin-1-yl)-3-(5-(trifluoromethyl)-1,3,4-thiadiazol-2-yl)imidazo[1,5-a]pyridine-6-sulfonamide]
871 nM | 200 nM | COc1ccc(C(=O)/C=C/C(=O)N2CCN(c3cc(S(=O)(=O)NC4CC4)cn4c(-c5nnc(C(F)(F)F)s5)ncc34)CC2)cc1 [Example 243, (E)-N-cyclopropyl-8-(4-(4-(4-methoxyphenyl)-4-oxobut-2-enoyl)piperazin-1-yl)-3-(5-(trifluoromethyl)-1,3,4-thiadiazol-2-yl)imidazo[1,5-a]pyridine-6-sulfonamide]
28.8 nM | 2360 nM | CO[C@H]1C[C@H](C(=O)N2CCN(c3cc(S(=O)(=O)NC4(C#N)CC4)cn4c(-c5nnc(C(F)(F)F)s5)ncc34)CC2)C1 [Example 245, N-(1-cyanocyclopropyl)-8-(4-((1r,3r)-3-methoxycyclobutane-1-carbonyl)piperazin-1-yl)-3-(5-(trifluoromethyl)-1,3,4-thiadiazol-2-yl)imidazo[1,5-a]pyridine-6-sulfonamide]
38 nM | 1280 nM | CN(C)CC(=O)N1CCN(c2cc(S(=O)(=O)NC3(C#N)CC3)cn3c(-c4nnc(C(F)(F)F)s4)ncc23)CC1 [Example 250, N-(1-cyanocyclopropyl)-8-(4-(dimethylglycyl)piperazin-1-yl)-3-(5-(trifluoromethyl)-1,3,4-thiadiazol-2-yl)imidazo[1,5-a]pyridine-6-sulfonamide]
57.5 nM | 1000 nM | N#CC1(NS(=O)(=O)c2cc(N3CCN(C(=O)CCC(=O)O)CC3)c3cnc(-c4nnc(C(F)(F)F)s4)n3c2)CC1 [Example 253, 4-(4-(6-(N-(1-cyanocyclopropyl)sulfamoyl)-3-(5-(trifluoromethyl)-1,3,4-thiadiazol-2-yl)imidazo[1,5-a]pyridin-8-yl)piperazin-1-yl)-4-oxobutanoic acid]
17.4 nM | 420 nM | N#CC1(NS(=O)(=O)c2cc(N3CCN(C(=O)c4ccno4)CC3)c3cnc(-c4nnc(C(F)(F)F)s4)n3c2)CC1 [Example 255, N-(1-cyanocyclopropyl)-8-(4-(isoxazole-5-carbonyl)piperazin-1-yl)-3-(5-(trifluoromethyl)-1,3,4-thiadiazol-2-yl)imidazo[1,5-a]pyridine-6-sulfonamide]
8.71 nM | 80 nM | CC#CC(C)(O)C(=O)N1CCN(c2cc(S(=O)(=O)NC3(C#N)CC3)cn3c(-c4nnc(C(F)(F)F)s4)ncc23)CC1 (stereo not drawn) [Example 256, N-(1-cyanocyclopropyl)-8-(4-(2-hydroxy-2-methylpent-3-ynoyl)piperazin-1-yl)-3-(5-(trifluoromethyl)-1,3,4-thiadiazol-2-yl)imidazo[1,5-a]pyridine-6-sulfonamide]
191 nM | 2110 nM | CC(O)(C#Cc1ccccc1)C(=O)N1CCN(c2cc(S(=O)(=O)NC3(C#N)CC3)cn3c(-c4nnc(C(F)(F)F)s4)ncc23)CC1 (stereo not drawn) [Example 257, N-(1-cyanocyclopropyl)-8-(4-(2-hydroxy-2-methyl-4-phenylbut-3-ynoyl)piperazin-1-yl)-3-(5-(trifluoromethyl)-1,3,4-thiadiazol-2-yl)imidazo[1,5-a]pyridine-6-sulfonamide]
45.7 nM | 1500 nM | CC(CO)C(=O)N1CCN(c2cc(S(=O)(=O)NC3(C#N)CC3)cn3c(-c4nnc(C(F)(F)F)s4)ncc23)CC1 (stereo not drawn) [Example 259, N-(1-cyanocyclopropyl)-8-(4-(3-hydroxy-2-methylpropanoyl)piperazin-1-yl)-3-(5-(trifluoromethyl)-1,3,4-thiadiazol-2-yl)imidazo[1,5-a]pyridine-6-sulfonamide]
